Among the data in patent publication EP4585599A1, “NITROGEN-CONTAINING FUSED RING COMPOUND, INTERMEDIATE THEREOF, PREPARATION METHOD THEREFOR AND USE THEREOF” (Hangzhou Synrx Therapeutics Biomedical Technology Co., Ltd., priority 2022, dated 2024) are IC50 values, retold here.

Like-named read-outs stand apart in the source and are kept apart here.

Assay [1] in a line: cells. The settings on record: Homo sapiens, DLD-1, 240 h.
In assay [2] the target is T1, helicase domain of the Pol θ protein (Homo sapiens, UniProt O75417).
T1 construct: The helicase domain of the Pol θ protein was purified from insect protein expression system; made in house; host or cells: insect protein expression system
T1 sequence (O75417 102-554 limits assumed): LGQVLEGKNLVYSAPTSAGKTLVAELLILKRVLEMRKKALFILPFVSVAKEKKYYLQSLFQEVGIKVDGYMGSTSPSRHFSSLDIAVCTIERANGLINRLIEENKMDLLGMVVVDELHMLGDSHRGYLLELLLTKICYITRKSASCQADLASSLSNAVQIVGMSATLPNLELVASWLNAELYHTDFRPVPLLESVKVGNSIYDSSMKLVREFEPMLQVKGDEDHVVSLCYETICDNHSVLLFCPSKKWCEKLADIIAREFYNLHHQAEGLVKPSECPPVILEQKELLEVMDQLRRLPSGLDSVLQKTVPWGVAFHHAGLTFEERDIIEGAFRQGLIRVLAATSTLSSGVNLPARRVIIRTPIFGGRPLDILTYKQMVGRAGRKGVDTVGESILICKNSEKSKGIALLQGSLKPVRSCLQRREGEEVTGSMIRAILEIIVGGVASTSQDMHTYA
The assay can be described thus: Biochemical Activity Assay (ADP Glo Assay) of Pol θ inhibitor, ATPase activity. (In general: ADP-Glo first removes unused ATP, then detects ADP through luciferase.)

The mark [3] stands for this setting: read-out: Cell viability assay IC50 (nM), CTG assay, CellTiter Glo, read on Day 10, cell line not given.
[4] abbreviates: read-out: Cell viability assay IC50 (nM), CTG on Day 10, cell line not given (method: DLD1 and DLD1^-/- cells).
The mark [5] stands for this setting: ADP-Glo assay, ATPase activity of Pol θ helicase domain, ssDNA substrate, read-out: Biochemical assay IC50.
Where [6] appears, read: ADP-Glo, ssDNA substrate, 60 min at room temperature, read-out: Biochemical assay IC50.

As for `COc1cnc(Cl)cc1-c1cc(C)ncc1C(=O)Nc1nc2ncc(N3CC[C@@H](O)[C@H](F)C3)cc2s1` [Example 101], the IC50 – broadly, the concentration needed to halve the response being measured – in assay [1] (setting [3]) is 389 nM; in assay [1] (setting [4]), 100 to 500 nM; in assay [2] (setting [5]), 3.78 nM; in assay [2] (setting [6]) it was < 50 nM.
Regarding `COc1cnc(Cl)cc1-c1cc(C)ncc1C(=O)Nc1nc2ccc(N3CCC(O)CC3)cc2s1` [Example 102], the IC50 in assay [1] (setting [3]) is 178 nM; in assay [1] (setting [4]), < 100 nM; in assay [2] (setting [5]), 8.06 nM; in assay [2] (setting [6]) it was < 50 nM.
For the compound `COc1cnc(Cl)cc1-c1cc(C)ncc1C(=O)Nc1nc2c(F)cc(N3CCC(O)CC3)cc2s1` [Example 103], the IC50 in assay [1] (setting [3]) was 22.4 nM; in assay [1] (setting [4]) it was < 100 nM; in assay [2] (setting [5]), 2.67 nM; in assay [2] (setting [6]), < 50 nM.
With `COc1cnc(Cl)cc1-c1cc(C)ncc1C(=O)Nc1nc2ccc(N3CCC(O)CC3)c(F)c2s1` [Example 104], the IC50 in assay [1] (setting [3]) is 5.62 nM; in assay [1] (setting [4]), < 100 nM; in assay [2] (setting [5]), 1.56 nM; in assay [2] (setting [6]) it was < 50 nM.
Regarding `COc1cnc(Cl)cc1-c1cc(C)ncc1C(=O)Nc1nc2ncc(-c3ccnc(N4CCN[C@H](C)C4)c3)cc2s1` [Example 105, (R)-2'-chloro-5'-methoxy-6-methyl-N-(6-(2-(3-methylpiperazin-1-yl)pyridin-4-yl)thiazolo[4,5-b]pyridin-2-yl)-[4,4'-bipyridine]-3-carboxamide], the IC50 in assay [1] (setting [3]) was 152 nM; in assay [1] (setting [4]), 100 to 500 nM; in assay [2] (setting [5]) it was 6.99 nM; in assay [2] (setting [6]) it was < 50 nM.
`COc1cnc(Cl)cc1-c1cc(C)ncc1C(=O)Nc1nc2ncc(N3CCC(O)(CO)CC3)cc2s1` [Example 106, 2'-chloro-N-(6-(4-hydroxy-4-(hydroxymethyl)piperidin-1-yl)thiazolo[4,5-b]pyridin-2-yl) -5'-methoxy-6-methyl-[4,4'-bipyridine]-3-carboxamide]: the half-maximal inhibitory concentration (IC50) in assay [1] (setting [3]) was 450 nM; in assay [1] (setting [4]), 100 to 500 nM; in assay [2] (setting [5]), 6.18 nM; in assay [2] (setting [6]), < 50 nM.
With `[2H]COc1cnc(Cl)cc1-c1cc(C)ncc1C(=O)Nc1nc2cnc(C3=CCC(O)CC3)cc2s1` (centres unmarked) [Example 108, 2'-chloro-N-(6-(4-hydroxycyclohex-1-en-1-yl)thiazolo[4,5-c]pyridin-2-yl)-5'-deuteromet hoxy-6-methyl-[4,4'-bipyridine]-3-carboxamide], the IC50 was 8.79 nM in assay [1] (setting [3]), < 100 nM in assay [1] (setting [4]), 1.88 nM in assay [2] (setting [5]) and < 50 nM in assay [2] (setting [6]).
For `[2H]C([2H])([2H])c1cc(-c2cc(Cl)ncc2OC)c(C(=O)Nc2nc3cnc(C4=CCC(O)CC4)cc3s2)cn1` (centres unmarked) [Example 110, 2'-chloro-N-(6-(4-hydroxycyclohex-1-en-1-yl)thiazolo[4,5-c]pyridin-2-yl)-5'-methoxy-6-(methyl-d3)-[4,4'-bipyridine]-3-carboxamide], in that order: 2.41 nM, < 100 nM, 2.61 nM and < 50 nM.
Turning to `[2H]C1(O)CC=C(c2cc3sc(NC(=O)c4cnc(C)cc4-c4cc(Cl)ncc4OC)nc3cn2)CC1` (centres unmarked) [Example 111, 2'-chloro-N-(6-(4-hydroxycyclohex-1-en-1-yl-4-d)thiazolo[4,5-c]pyridin-2-yl)-5'-methox y-6-methyl-[4,4'-bipyridine]-3-carboxamide], the IC50 in assay [1] (setting [3]) was 13.1 nM; in assay [1] (setting [4]) it was < 100 nM; in assay [2] (setting [5]) it was 3.78 nM; in assay [2] (setting [6]), < 50 nM.
For `COc1cnc(Cl)cc1-c1cc(C)ncc1C(=O)Nc1nc2cnc(C3=CC[C@@H](O)CC3)cc2s1` [Example 115, (S) -2'-chloro-N-(6-(4-hydroxycyclohex-1-en-1-yl)thiazolo[4,5-c]pyridin-2-yl)-5'-methoxy-6-methyl-[4,4'-bipyridine]-3-c arboxamide], in that order: 2.61 nM, < 100 nM, 3.21 nM and < 50 nM.
Consider `COc1cnc(Cl)cc1-c1cc(C)ncc1C(=O)Nc1nc2ccc(N3CCC(O)C(C)(C)C3)nc2s1` (centres unmarked) [Example 116, 2'-chloro-N-(5-(4-hydroxy-3,3-dimethylpiperidin-1-yl)thiazol[5,4-b]pyridin-2-yl)-5'-me thoxy-6-methyl-[4,4'-bipyridine]-3-carboxamide], for which the IC50 in assay [1] (read-out: Cell viability assay IC50 (nM)) came out at 36.9 nM; in assay [2] (Biochemical assay IC50 (nM)), 10.3 nM.
Regarding `COc1cnc(Cl)cc1-c1cc(C)ncc1C(=O)Nc1nc2ncc(N(C)CCC(C)O)cc2s1` (centres unmarked) [Example 117], the results for the half-maximal inhibitory concentration (IC50) in assay [1] (setting [3]) and in assay [2] (setting [5]) were 799 nM and 7.28 nM, respectively.
For `COc1cnc(Cl)cc1-c1cc(C)ncc1C(=O)Nc1nc2ncc(N3CCC(O)C(C)(C)C3)cc2s1` (centres unmarked) [Example 118], in that order: 23 nM and 4.02 nM.
As for `COc1cnc(Cl)cc1-c1cc(C)ncc1C(=O)Nc1nc2cc(F)c(N3CCC(O)CC3)cc2s1` [Example 119], the results for the IC50 in assay [1] (setting [3]) and in assay [2] (setting [5]) were 10.7 nM and 5.46 nM, respectively.
As to `COc1cnc(Cl)cc1-c1cc(C)ncc1C(=O)Nc1nc2c(C#N)cc(N3CCC(O)CC3)cc2s1` [Example 120], the figures for the IC50 in assay [1] (setting [3]) and in assay [2] (setting [5]) were 14.2 nM and 5.93 nM, respectively.
Take `COc1cnc(Cl)cc1-c1cc2cncn2cc1C(=O)Nc1nc2cnc(N3CCC(O)CC3)cc2s1` [Example 121]: the IC50 in assay [1] (setting [3]) was 2510 nM; in assay [2] (setting [5]), 51.9 nM.
As to `COc1cnc(Cl)cc1-c1cc(C(F)(F)F)ncc1C(=O)Nc1nc2ccc(N3CCC(O)CC3)nc2s1` [Example 122], the IC50 was 2710 nM in assay [1] (setting [3]) and 145 nM in assay [2] (setting [5]).
In the same order, the values of `COc1cnc(Cl)cc1-c1cc(C)ncc1C(=O)Nc1nc2c(F)nc(N3CCC(O)CC3)cc2s1` [Example 123] are 24.2 nM and 10.5 nM.
Turning to `COc1cnc(Cl)cc1-c1c(C(=O)Nc2nc3ccc(N4CCC(O)CC4)nc3s2)cnc(C)c1F` [Example 124], the figures for the concentration for half-maximal inhibition (IC50) in assay [1] (setting [3]) and in assay [2] (setting [5]) were 584 nM and 163 nM, respectively.
Regarding `COc1cnc(Cl)c(F)c1-c1cc(C)ncc1C(=O)Nc1nc2cc(F)c(N3CCC(O)CC3)nc2s1` [Example 125], the half-maximal inhibitory concentration (IC50) in assay [1] (setting [3]) was found to be 3.98 nM; in assay [2] (setting [5]) it was 10 nM.
In the same order, the values of `COc1cnc(Cl)cc1-c1cc(C)ncc1C(=O)Nc1nc2cc(F)c(N3CCC(O)CC3)nc2s1` [Example 126] are 9.26 nM and 7.35 nM.
As for `COc1cnc(Cl)c(F)c1-c1cc(C)ncc1C(=O)Nc1nc2ncc(N3CCC(O)CC3)cc2s1` [Example 127], the results for the half-maximal inhibitory concentration (IC50) in assay [1] (setting [3]) and in assay [2] (setting [5]) were 15.8 nM and 3.52 nM, respectively.
Turning to `COc1cnc(Cl)cc1-c1cc(C)ncc1C(=O)Nc1nc2ccc(N3CCC(CO)CC3)nc2s1` [Example 128], the values for the IC50 in assay [1] (setting [3]) and in assay [2] (setting [5]) were 39.8 nM and 9.69 nM, respectively.
In the same order, the values of `COc1cnc(Cl)c(F)c1-c1cc(C)ncc1C(=O)Nc1nc2ccc(N3CCC(CO)CC3)nc2s1` [Example 129] are 9.68 nM and 8.06 nM.
With `Cc1cc(-c2cc(Cl)ncc2OC(F)F)c(C(=O)Nc2nc3ccc(N4CCC(O)CC4)nc3s2)cn1` [Example 130], the IC50 was found to be 11 nM in assay [1] (setting [3]) and 6.91 nM in assay [2] (setting [5]).
`COc1cnc(Cl)cc1-c1cc(C)ncc1C(=O)Nc1nc2ccc(N3CCc4ccccc43)nc2s1` [Example 131]: the results for the IC50 in assay [1] (setting [3]) and in assay [2] (setting [5]) were 736 nM and 149 nM, respectively.
Consider `COc1cnc(Cl)cc1-c1cc(C)ncc1C(=O)Nc1nc2ccc(N3CCc4ccccc4C3)nc2s1` [Example 132], for which the results for the IC50 in assay [1] (setting [3]) and in assay [2] (setting [5]) were 158 nM and 163 nM, respectively.
For `COc1cnc(Cl)cc1-c1cc(C)ncc1C(=O)Nc1nc2ncc(N3CC4(CC(O)C4)C3)nc2s1` [Example 133], the results for the IC50 in assay [1] (setting [3]) and in assay [2] (setting [5]) were 26.1 nM and 6.92 nM, respectively.
`COc1cnc(Cl)cc1-c1cc(C)ncc1C(=O)Nc1nc2ncc(N3CCC(C(C)(C)O)CC3)nc2s1` [Example 134]: the 50% inhibitory concentration (IC50) in assay [1] (setting [3]) stood at 5.41 nM; in assay [2] (setting [5]), 4.11 nM.
Regarding `COc1cnc(Cl)cc1-c1cc(C)ncc1C(=O)Nc1nc2ccc(N3CC[C@@H](O)C[C@H]3C)nc2s1` [Example 135], the IC50 in assay [1] (setting [3]) amounted to 19.2 nM; in assay [2] (setting [5]) it was 5.41 nM.
For `COc1cnc(Cl)cc1-c1cc(C)ncc1C(=O)Nc1nc2ccc(N3CC[C@H](O)C[C@H]3C)nc2s1` [Example 136], in that order: 121 nM and 25.8 nM.
For the compound `COc1cnc(Cl)cc1-c1cc(C)ncc1C(=O)Nc1nc2ccc(N3CCn4cncc4C3)nc2s1` [Example 137], the IC50 in assay [1] (setting [3]) stood at 171 nM; in assay [2] (setting [5]), 25.1 nM.
As for `COc1cnc(Cl)cc1-c1cc(C)ncc1C(=O)Nc1nc2ccc(N3CCC=CC3=O)nc2s1` [Example 138], the values for the IC50 in assay [1] (setting [3]) and in assay [2] (setting [5]) were 26.1 nM and 7.58 nM, respectively.
In the case of `COc1cnc(Cl)cc1-c1cc(C)ncc1C(=O)Nc1nc2ccc(N3CCn4ccnc4C3)nc2s1` [Example 139], the IC50 in assay [1] (setting [3]) amounted to 121 nM; in assay [2] (setting [5]), 19.1 nM.
In the case of `COc1cnc(Cl)cc1-c1cc(C)ncc1C(=O)Nc1nc2cnc(N3CC[C@@H](O)C[C@@H]3C)nc2s1` [Example 140], the IC50 in assay [1] (setting [3]) is 68.1 nM; in assay [2] (setting [5]), 15.8 nM.
In the case of `COc1cnc(Cl)cc1-c1cc(C)ncc1C(=O)Nc1nc2cnc(N3CC[C@@H](O)C[C@H]3C)nc2s1` [Example 141], the values for the IC50 in assay [1] (setting [3]) and in assay [2] (setting [5]) were 21.5 nM and 8.23 nM, respectively.
As to `COc1cnc(Cl)cc1-c1cc(C)ncc1C(=O)Nc1nc2cnc(N3CC4(CC(O)C4)C3)nc2s1` [Example 142], the IC50 was found to be 104 nM in assay [1] (setting [3]) and 4.49 nM in assay [2] (setting [5]).
As for `COc1cnc(Cl)c(F)c1-c1cc(C)ncc1C(=O)Nc1nc2cc(F)c(N3CCC(F)(F)CC3)nc2s1` [Example 143], the IC50 in assay [1] (setting [3]) came to 43 nM; in assay [2] (setting [5]) it was 23.6 nM.
With `COc1cnc(Cl)cc1-c1cc(C)ncc1C(=O)Nc1nc2ncc(CN3CCC(O)CC3)cc2s1` [Example 144], the half-inhibitory concentration (IC50) in assay [1] (setting [3]) was 2220 nM; in assay [2] (setting [5]), 36.7 nM.
